{"source": "ChEMBL document CHEMBL5257035", "about": "“Nucleoside Derived Antibiotics to Fight Microbial Drug Resistance: New Utilities for an Established Class of Drugs?” (J Med Chem, 2016)", "key": {"Staphylococcus aureus [1]": {"test_system": "Staphylococcus aureus", "test": "Antibacterial activity against methicillin-resistant Staphylococcus aureus assessed as reduction in bacterial growth by broth dilution method", "assay_type": "functional"}, "Aspergillus niger": {"test_system": "Aspergillus niger", "test": "Antifungal activity against Aspergillus niger MTCC 282 assessed as reduction in microbial growth measured after 48 hrs by broth dilution method", "assay_type": "functional"}, "Cryptococcus neoformans [2]": {"test_system": "Cryptococcus neoformans", "test": "Antifungal activity against Cryptococcus neoformans assessed as reduction in fungal growth", "assay_type": "functional"}, "Coccidioides immitis": {"test_system": "Coccidioides immitis", "test": "Antifungal activity against Coccidioides immitis assessed as reduction in fungal growth", "assay_type": "functional"}, "Cryptococcus neoformans [3]": {"test_system": "Cryptococcus neoformans", "test": "Antifungal activity against Cryptococcus neoformans assessed as fungal growth inhibition measured after 24 hrs by micro broth dilution method", "assay_type": "functional"}, "Candida albicans [4]": {"test_system": "Candida albicans", "test": "Antifungal activity against Candida albicans assessed as fungal growth inhibition measured after 24 hrs by micro broth dilution method", "assay_type": "functional"}, "Aspergillus fumigatus [5]": {"test_system": "Aspergillus fumigatus", "test": "Antifungal activity against Aspergillus fumigatus assessed as fungal growth inhibition", "assay_type": "functional"}, "Enterococcus faecalis": {"test_system": "Enterococcus faecalis", "test": "Antimicrobial activity against Enterococcus faecalis 10785 assessed as reduction in microbial growth by broth microdilution method", "assay_type": "functional"}, "Staphylococcus aureus [6]": {"test_system": "Staphylococcus aureus", "test": "Antimicrobial activity against methicillin-resistant Staphylococcus aureus assessed as reduction in microbial growth by broth microdilution method", "assay_type": "functional"}, "Cryptococcus neoformans [7]": {"test_system": "Cryptococcus neoformans", "test": "Antifungal activity against Cryptococcus neoformans assessed as fungal growth inhibition", "assay_type": "functional"}, "Fusarium oxysporum": {"test_system": "Fusarium oxysporum", "test": "Antifungal activity against Fusarium oxysporum assessed as inhibition of fungal growth", "assay_type": "functional"}, "Candida albicans [8]": {"test_system": "Candida albicans", "test": "Antifungal activity against Candida albicans assessed as inhibition of fungal growth", "assay_type": "functional"}, "Escherichia coli": {"test_system": "Escherichia coli", "test": "Antibacterial activity against Escherichia coli ATCC 25922 assessed as bacterial growth inhibition measured after 48 hrs by microdilution method", "assay_type": "functional"}, "[9]": {"target": "T1, Phospho-N-acetylmuramoyl-pentapeptide-transferase (Escherichia coli K-12, UniProt P0A6W3)", "T1 sequence (P0A6W3 whole entry)": "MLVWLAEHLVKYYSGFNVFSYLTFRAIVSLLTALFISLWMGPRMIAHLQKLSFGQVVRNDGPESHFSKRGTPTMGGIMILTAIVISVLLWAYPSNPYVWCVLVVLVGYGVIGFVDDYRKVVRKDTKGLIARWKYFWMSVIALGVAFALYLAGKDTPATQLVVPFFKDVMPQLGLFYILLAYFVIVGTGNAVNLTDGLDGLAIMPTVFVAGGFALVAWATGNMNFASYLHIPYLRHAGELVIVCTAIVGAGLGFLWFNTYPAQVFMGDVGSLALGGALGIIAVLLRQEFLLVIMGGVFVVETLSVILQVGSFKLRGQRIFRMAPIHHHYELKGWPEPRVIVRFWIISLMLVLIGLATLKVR", "test": "Inhibition of MraY in Escherichia coli K12"}, "Pseudomonas aeruginosa": {"test_system": "Pseudomonas aeruginosa", "test": "Antimicrobial activity against Pseudomonas aeruginosa M35 assessed as reduction in microbial growth", "assay_type": "functional"}, "[10]": {"test": "Inhibition of Candida albicans chitin synthase"}, "Candida albicans [11]": {"test_system": "Candida albicans", "test": "Inhibition of Candida albicans chitin synthase at 1 uM relative to control"}, "Mycobacterium kansasii": {"test_system": "Mycobacterium kansasii", "test": "Antimycobacterial activity against Mycobacterium kansasii assessed as microbial growth reduction", "assay_type": "functional"}, "Mycobacterium avium": {"test_system": "Mycobacterium avium", "test": "Antimycobacterial activity against Mycobacterium avium assessed as microbial growth reduction", "assay_type": "functional"}, "[12]": {"test_system": "Mycobacterium intracellulare", "test": "Antimycobacterial activity against Mycobacterium intracellulare assessed as microbial growth reduction", "assay_type": "functional"}, "Candida albicans [13]": {"test_system": "Candida albicans", "test": "Antifungal activity against Candida albicans B-311 assessed as reduction fungal growth incubated for 16 hrs by microbroth dilution method", "assay_type": "functional"}, "[14]": {"test": "Inhibition of Bacterial MraY", "set-up": "species or system Bacteria"}, "[15]": {"test": "Cytotoxicity against human HepG2 cells assessed as reduction in cell viability incubated for 72 hrs by MTT assay", "assay_type": "toxicity, cell-based"}, "Aspergillus fumigatus [16]": {"test_system": "Aspergillus fumigatus", "test": "Antifungal activity against Aspergillus fumigatus assessed as inhibition of fungal growth", "assay_type": "functional"}}, "note": "pIC50: −log10 of the molar value.", "data": [{"smiles": "NC[C@H]1O[C@@H](O[C@@H](c2cn(CCCCCCCCCCOc3ccc(C(=O)c4ccccc4)cc3)nn2)[C@H]2O[C@@H](n3ccc(=O)[nH]c3=O)[C@H](O)[C@@H]2O)[C@H](O)[C@@H]1O", "values": [{"measurement": "MIC", "setting": "Staphylococcus aureus [1]", "result": 8, "unit": "µg/mL"}]}, {"smiles": "CC(C)C[C@H](N)C(=O)N[C@H](C(=O)O)[C@@H]1C[C@@H](O)[C@@H](O)[C@H](n2ccc(=O)[nH]c2=O)O1", "values": [{"measurement": "MIC", "setting": "Aspergillus niger", "result": 0.03, "unit": "µg/mL"}, {"measurement": "MIC", "setting": "Cryptococcus neoformans [2]", "result": 0.25, "unit": "µg/mL"}, {"measurement": "MIC", "setting": "Coccidioides immitis", "result": 0.25, "unit": "µg/mL"}]}, {"smiles": "Nc1ncnc2c1ncn2[C@@H]1O[C@H](CSCCC(=O)O)[C@@H](O)[C@H]1O", "values": [{"measurement": "MIC", "setting": "Cryptococcus neoformans [3]", "result": 0.19, "unit": "µM"}, {"measurement": "MIC", "setting": "Candida albicans [4]", "result": 0.19, "unit": "µM"}, {"measurement": "MIC", "setting": "Aspergillus fumigatus [5]", "result": 0.19, "unit": "µM"}]}, {"smiles": "COc1ccc(Cn2c(=O)ccn([C@@H]3O[C@H]([C@H](O)[C@H](NCCCNC(=O)[C@@H](N)[C@@H](O)C(C)C)C(=O)OC(C)(C)C)[C@@H](O[Si](C)(C)C(C)(C)C)[C@H]3O[Si](C)(C)C(C)(C)C)c2=O)cc1", "values": [{"measurement": "MIC", "setting": "Enterococcus faecalis", "result": 4, "unit": "µg/mL"}, {"measurement": "MIC", "setting": "Staphylococcus aureus [6]", "result": 4, "unit": "µg/mL"}]}, {"smiles": "CC1(C)O[C@@H]2[C@H](O1)[C@@H](Cn1cc(COc3ccc(Cl)cc3)nn1)O[C@H]2n1ccc(=O)[nH]c1=O", "values": [{"measurement": "MIC", "setting": "Cryptococcus neoformans [7]", "result": 8, "unit": "µg/mL"}, {"measurement": "MIC", "setting": "Fusarium oxysporum", "result": 32, "unit": "µg/mL"}, {"measurement": "MIC", "setting": "Candida albicans [8]", "result": 24, "unit": "µg/mL"}]}, {"smiles": "CCCCCCCCCNC[C@@H](O[C@@H]1O[C@H](CN)[C@@H](O)[C@H]1O)[C@H]1O[C@@H](n2ccc(=O)[nH]c2=O)[C@H](O)[C@@H]1O", "values": [{"measurement": "MIC", "setting": "Escherichia coli", "result": 2.5, "unit": "µg/mL"}, {"measurement": "pIC50", "setting": "[9]", "result": 6.48}]}, {"smiles": "CSCC[C@H](NC(=O)N[C@@H](Cc1cccc(O)c1)C(=O)O)C(=O)NC(CN(C)C(=O)C1Cc2ccc(O)cc2CN1)C(=O)N/C=C1/C[C@@H](O)[C@H](n2ccc(=O)[nH]c2=O)O1", "note": "(stereo partly drawn)", "values": [{"measurement": "MIC", "setting": "Pseudomonas aeruginosa", "result": 6.25, "unit": "µg/mL"}]}, {"smiles": "O=C(NC[C@@H]1O[C@H](n2ccc(=O)[nH]c2=O)[C@@H](O)[C@H]1O)OCCOCCOC(=O)NC[C@H]1O[C@@H](n2ccc(=O)[nH]c2=O)[C@H](O)[C@@H]1O", "values": [{"measurement": "pIC50", "setting": "[10]", "result": 4.93}, {"measurement": "inhibition", "setting": "Candida albicans [11]", "result": 45, "unit": "%"}]}, {"smiles": "CCCCCCCCCCCC(=O)O[C@@H]1[C@H](OC)[C@@H]([C@@H](O[C@@H]2OC(C(=O)N[C@H]3CCC[C@@H](C)NC3=O)=C[C@@H](O)[C@H]2O)C(N)=O)O[C@H]1n1ccc(=O)[nH]c1=O", "values": [{"measurement": "MIC", "setting": "Mycobacterium kansasii", "result": 0.063, "unit": "µg/mL"}, {"measurement": "MIC", "setting": "Mycobacterium avium", "result": 0.063, "unit": "µg/mL"}, {"measurement": "MIC", "setting": "[12]", "result": 0.063, "unit": "µg/mL"}]}, {"smiles": "CC(C)C[C@H](N)C(=O)N[C@H](C(=O)N[C@@H](C(=O)O)[C@H]1OC(n2cc(C=O)[nH]c2=O)[C@H](O)[C@@H]1O)[C@H](C)[C@H](O)c1cc(O)ccn1", "note": "(stereo partly drawn)", "values": [{"measurement": "MIC", "setting": "Candida albicans [13]", "result": 83, "unit": "µg/mL"}]}, {"smiles": "C[C@@H]([C@H](N)C(=O)N[C@H](C(=O)O)[C@@H]1C[C@@H](O)[C@@H](O)[C@H](n2ccc(=O)[nH]c2=O)O1)[C@H](O)c1ccc(O)cc1", "values": [{"measurement": "MIC", "setting": "Aspergillus niger", "result": 0.03, "unit": "µg/mL"}, {"measurement": "MIC", "setting": "Candida albicans [8]", "result": 0.03, "unit": "µg/mL"}, {"measurement": "MIC", "setting": "Cryptococcus neoformans [2]", "result": 0.25, "unit": "µg/mL"}, {"measurement": "MIC", "setting": "Coccidioides immitis", "result": 0.03, "unit": "µg/mL"}]}, {"smiles": "CCCCCCCCCCCCCC(=O)O[C@@H]1[C@H](OC)[C@@H]([C@@H](O[C@@H]2OC(C(=O)N[C@H]3CCC[C@@H](C)NC3=O)=C[C@@H](O)[C@H]2O)C(N)=O)O[C@H]1n1ccc(=O)[nH]c1=O", "values": [{"measurement": "MIC", "setting": "Mycobacterium kansasii", "result": 0.063, "unit": "µg/mL"}, {"measurement": "MIC", "setting": "Mycobacterium avium", "result": 0.063, "unit": "µg/mL"}, {"measurement": "MIC", "setting": "[12]", "result": 0.063, "unit": "µg/mL"}]}, {"smiles": "CCCCCCCCCC(=O)O[C@@H]1[C@H](OC)[C@@H]([C@@H](O[C@@H]2OC(C(=O)N[C@H]3CCC[C@@H](C)NC3=O)=C[C@@H](O)[C@H]2O)C(N)=O)O[C@H]1n1ccc(=O)[nH]c1=O", "values": [{"measurement": "MIC", "setting": "Mycobacterium kansasii", "result": 0.063, "unit": "µg/mL"}, {"measurement": "MIC", "setting": "Mycobacterium avium", "result": 0.063, "unit": "µg/mL"}, {"measurement": "MIC", "setting": "[12]", "result": 0.063, "unit": "µg/mL"}]}, {"smiles": "CSCC[C@H](NC(=O)N[C@@H](Cc1cccc(O)c1)C(=O)O)C(=O)NC(CN(C)C(=O)C1Cc2ccc(O)cc2C(C)N1)C(=O)N/C=C1/C[C@@H](O)[C@H](N2CCC(=O)NC2=O)O1", "note": "(stereo partly drawn)", "values": [{"measurement": "MIC", "setting": "Pseudomonas aeruginosa", "result": 6.25, "unit": "µg/mL"}]}, {"smiles": "CCC(C)CCCCCCC/C(C)=C/C(C)=C/C(=O)NCC(=O)N[C@H]1[C@H](OP(=O)(O)OC(C(=O)O)C(C[C@H]2O[C@@H](n3ccc(=O)[nH]c3=O)[C@H](O)[C@@H]2O)O[C@@H]2O[C@H](CO)[C@@H](O)[C@H](O)[C@H]2O)O[C@H](CO)[C@@H](O)[C@@H]1O", "note": "(stereo partly drawn)", "values": [{"measurement": "MIC", "setting": "Enterococcus faecalis", "result": 50, "unit": "µg/mL"}, {"measurement": "MIC", "setting": "Staphylococcus aureus [6]", "result": 100, "unit": "µg/mL"}, {"measurement": "pIC50", "setting": "[14]", "result": 5.96}]}, {"smiles": "CCCCCCCCCCCCCCC[C@@H](NC(=O)[C@@H](NC(=O)N[C@H](C(=O)O)C(C)C)[C@@H]1CCNC(=N)N1)C(=O)NCCCNC(C(=O)O)[C@H](O[C@@H]1O[C@H](CN)[C@@H](O)[C@H]1O)[C@H]1O[C@@H](n2ccc(=O)[nH]c2=O)[C@H](O)[C@@H]1O", "note": "(stereo partly drawn)", "values": [{"measurement": "IC50 at 72 h", "setting": "[15]", "result": "> 100", "unit": "µg/mL"}, {"measurement": "MIC", "setting": "Enterococcus faecalis", "result": 0.25, "unit": "µg/mL"}, {"measurement": "MIC", "setting": "Staphylococcus aureus [6]", "result": 2, "unit": "µg/mL"}, {"measurement": "pIC50", "setting": "[14]", "result": 6.13}]}, {"smiles": "Nc1ccc(C(=O)OC[C@H]2O[C@@H](n3ccc(=O)[nH]c3=O)[C@H](O)[C@@H]2O)c(O)c1", "values": [{"measurement": "MIC", "setting": "Aspergillus fumigatus [16]", "result": 1000, "unit": "µg/mL"}, {"measurement": "MIC", "setting": "Candida albicans [8]", "result": 1000, "unit": "µg/mL"}]}, {"smiles": "CCCCNC[C@@H](O[C@@H]1O[C@H](CN)[C@@H](O)[C@H]1O)[C@H]1O[C@@H](n2ccc(=O)[nH]c2=O)[C@H](O)[C@@H]1O", "values": [{"measurement": "MIC", "setting": "Escherichia coli", "result": 2.5, "unit": "µg/mL"}, {"measurement": "pIC50", "setting": "[9]", "result": 6.48}]}]}
